Measurements: patent US4801597A, “Certain inositol-nicotinate ester derivatives and polyionic complexes therefore useful for treating diabetes meuitus, hyperlipidemia and lactic acidosis” (University of Florida, priority 1985, dated 1989)

Tests used:
serum glucose = assay: Serum glucose lowering in fasted rats, single orogastric dose, monitored over 24 hours; format: in vivo; details: sodium DCA 100 mg/kg or derivative equivalent to 100 mg/kg DCA
Text: (§1) Results are expressed as (1) maximum percent decrease in glucose or lactace, relative to control, (2) the time at which the maximum changes occurred, and (3) the duration of action of the drug.

blood lactate = assay: Blood lactate lowering in fasted rats, single orogastric dose, monitored over 24 hours; format: in vivo; details: for duration of action (blood lactate decrease): single orogastric dose, sodium DCA 100 mg/kg or derivative equivalent to 100 mg/kg DCA
Text: as §1

blood glucose = details: patients with diabetes mellitus; cited from earlier work
blood cholesterol = details: patients with various forms of hyperlipidemia; cited from earlier work
lactate oxidation = details: animal tissues; cited from earlier work
lactic acid levels = details: patients with lactic acidosis; cited from earlier work
[1] = one human patient, about four months; resolved when treatment stopped; cited from earlier work
[2] = tested on: hepatic glucose production; details: cited from earlier work
[3] = cited from earlier work
[4] = tested on: circulating triglyceride and cholesterol; details: obese and diabetic animals; cited from earlier work
peripheral tissues = details: cited from earlier work
[5] = chronic administration, doses exceeding those used clinically; cited from earlier work
[6] = Comparative pharmacokinetic investigations (bioavailability, oxalate formation); format: in vivo; details: comparative pharmacokinetic investigations with DCA and Derivative 4

O=C(OC1C(OC(=O)C(Cl)Cl)C(OC(=O)C(Cl)Cl)C(OC(=O)C(Cl)Cl)C(OC(=O)C(Cl)Cl)C1OC(=O)C(Cl)Cl)C(Cl)Cl (stereo not shown) [Derivative 3, inositol hexadichloroacetate]
duration of action (serum glucose decrease) (serum glucose): 6 h | potency relative to DCA (blood lactate) (blood lactate; FIG. 2, dose equivalent to 100 mg/kg DCA): less potent than DCA | duration of action (blood lactate decrease) (blood lactate): 8 h

O=C(O)C(Cl)Cl [DCA, dichloroacetic acid]
blood glucose levels (blood glucose): decrease blood glucose levels in patients with diabetes mellitus | duration of action (serum glucose decrease) (serum glucose): 17 h | blood cholesterol levels (blood cholesterol): markedly decreases blood cholesterol levels | lactate oxidation (lactate oxidation): stimulates lactate oxidation in animal tissues | lactic acid levels and overall morbidity (lactic acid levels): significantly decreases lactic acid levels and overall morbidity in patients with lactic acidosis | polyneuropathy [1]: mild polyneuropathy that resolved when treatment stopped | hepatic glucose production [2]: inhibits hepatic glucose production | in vivo oxidation [3]: oxidize in vivo to glyoxylate and subsequently to oxalate | duration of action (blood lactate decrease) (blood lactate): 18 h | circulating triglyceride and cholesterol concentrations [4]: reduces circulating triglyceride and cholesterol concentrations | glucose uptake and utilization (peripheral tissues): stimulates glucose uptake and utilization by peripheral tissues | chronic toxicity [5]: reversible peripheral neuropathy, changes in testicular morphology and lenticular opacities

O=C(OC1OC(C(=O)O)C(OC(=O)C(Cl)Cl)C(OC(=O)C(Cl)Cl)C1OC(=O)C(Cl)Cl)C(Cl)Cl (stereo not shown) [Derivative 1, potassium tetra(dichloroacetyl)glucuronate]
duration of action (serum glucose decrease) (serum glucose): > 24 h | duration of action (blood lactate decrease) (blood lactate): > 24 h

C[n+]1cccc(C(=O)OC2C(OC(=O)c3ccc[n+](C)c3)C(OC(=O)c3ccc[n+](C)c3)C(OC(=O)c3ccc[n+](C)c3)C(OC(=O)c3ccc[n+](C)c3)C2OC(=O)c2ccc[n+](C)c2)c1 (stereo not shown) [Derivative 4, inositol hexa(N-methylnicotinate-dichloroacetate)]
formation of oxalate [6]: minimal and unlikely to be toxic | duration of action (serum glucose decrease) (serum glucose): > 24 h | duration of action (blood lactate decrease) (blood lactate): > 24 h

O=C(OC1C(O)C(OP(=O)(O)O)C(OC(=O)C(Cl)Cl)C(OC(=O)C(Cl)Cl)C1OC(=O)C(Cl)Cl)C(Cl)Cl (stereo not shown) [Derivative 2, inositol monophosphatetetradichloroacetate]
duration of action (serum glucose decrease) (serum glucose): 24 h | duration of action (blood lactate decrease) (blood lactate): > 24 h
